Test results as given in article PMC11550998, “Novel 5-HT7 receptor antagonists modulate intestinal immune responses and reduce severity of colitis” (American Journal of Physiology - Gastrointestinal and Liver …, 2024).

Key:
[1] = biological target: α1a, α1b, α1d, β1, β2, β3, D2, D5, DAT, GABA-A, H2, H3, H4, mAChR1-5, opioid receptors (δ, κ, µ), benzodiazepine receptors (peripheral and brain) …; assay: Additional selectivity profiling, receptors and transporters (PDSP); details: PDSP panel, limited binding capacity; read-out: Ki at a variety of receptors and transporters
Protocol: (§1) In vitro assessments of MC-170073, MC-20078, and MC-230079 activity at the following targets were determined using the assay systems available through the Psychoactive Drug Screening Program (PDSP). Detailed protocols for each assay are available at https://pdsp.unc.edu/pdspweb/?site=assays. Receptors 5-HT1A, 5-HT1B, 5-HT1D, 5-HT1E, 5-HT2A, 5-HT2B, 5-HT2C, 5-HT3, 5-HT5A, 5-HT6, 5-HT7, α1A, α1B, α1D, α2A, α2B, α2C, benzodiazepine, β1, β2, β3, GABA-A, H1, H2, H3, H4, M1, M2, M3, M4, M5, δ-opioid, κ-opioid, and µ-opioid and transporters dopamine, norepinephrine, and serotonin were evaluated.

α2A = biological target: T1, α2A (Homo sapiens, UniProt P08913); assay: PDSP selectivity profiling, α2A; type: binding
T1 construct: NIMH Psychoactive Drug Screening Program (PDSP), assay service
Protocol: as §1

α2C = biological target: T2, α2C (Homo sapiens, UniProt P18825); assay: PDSP selectivity profiling, α2C; type: binding
T2 construct: NIMH Psychoactive Drug Screening Program (PDSP), assay service
Protocol: as §1

H1 = biological target: T3, H1 (Homo sapiens, UniProt P35367); assay: PDSP selectivity profiling, H1; type: binding
T3 construct: NIMH Psychoactive Drug Screening Program (PDSP), assay service
Protocol: as §1

[2] = Microsomal stability assay, mouse liver microsomes; type: in vitro ADME; details: 37°C, NADPH regenerating system, read-out: T1/2 MLM
Protocol: Test compounds were assessed for microsomal stability by incubating at 37°C in the presence of mouse or human liver microsomes and an NADPH regenerating system as described by Yang et al. ([16]). Microsomal protein content was adjusted to ensure accurate rates of substrate consumption. Analysis was performed by LC-MS/MS analysis.

[3] = system: chronic DSS-induced colitis; assay: Chronic DSS-induced colitis model (three cycles of DSS); type: in vivo, C57BL/6 mice; details: 10 mg/kg ip during last cycle
From the text: C57BL/6 (Taconic, Cambridge City, IN) for the DSS model of colitis, as well as C57BL/6 and Rag1^−/− mice (Jackson Laboratory, Bar Harbor, ME) for the T-cell transfer model, were kept in sterilized, filter-topped cages under specific pathogen-free conditions upon arrival and fed autoclaved food. Male mice aged 8–10 wk were used for all experiments. Mice were acclimatized for 7 days before the start of any experiments. All experiments were approved by the animal ethics committee of McMaster University and conducted under Canadian guidelines for animal research.
For induction of acute colitis, DSS (molecular mass 40 kDa; ICN; Biomedicals Incorporate, Solon, OH) was added to autoclaved drinking water at a final concentration of 4 or 5% wt/vol for 5 days. For the induction of chronic colitis, DSS was added to normal drinking water at a final concentration of 4% for 5 days, followed by 7 days of water. This cycle was repeated twice thereafter, with 2% DSS. Control mice received vehicle or normal drinking water.
For acute DSS-induced colitis, C576BL/6 mice were treated with MC-170073 (10 mg/kg of body wt) or vehicle (10% DMSO in normal saline) via intraperitoneal injection once daily for 6 days, starting 1 day before the beginning of DSS. In a separate experiment, C57BL/6 mice were orally administered with MC-230078 (10 mg/kg) or vehicle twice daily for 5 days, starting from the beginning of DSS. […]
Disease activity index (DAI) is a combined score of weight loss, stool consistency, and fecal bleeding and was blindly assessed using a previously published scoring system ([19]). […] DAI was measured across all days of DSS treatment. Macroscopic damage scores were blindly scored using a previously published scoring system for DSS-induced colitis ([19]).
Colonic myeloperoxidase (MPO) levels were measured following a published protocol ([19]). […] The absorbance was measured at 450 nm by a spectrophotometer (model EL808, BioTek). MPO level was expressed in units per milligram of tissue, where 1 U is defined as the quantity of enzyme able to convert 1 μmol hydrogen peroxide to water per minute at room temperature.
Segments of the proximal colon were washed with PBS, fixed in 10% neutral-buffered formalin, washed with ethanol, and embedded in paraffin. Hematoxylin-eosin (H&E)-stained colonic tissue sections were scored using a previously published system ([19]): crypt architecture (normal = 0; severe crypt distortion with loss of entire crypts = 3), degree of inflammatory cell infiltration (normal = 0; dense inflammatory infiltrate = 3), muscle thickening (base of crypt sits on the muscularis mucosae = 0; marked muscle thickening present = 3), goblet cell depletion (absent = 0; present = 1), and crypt abscess (absent = 0; present = 1). […]

T2 sequence (P18825 whole entry): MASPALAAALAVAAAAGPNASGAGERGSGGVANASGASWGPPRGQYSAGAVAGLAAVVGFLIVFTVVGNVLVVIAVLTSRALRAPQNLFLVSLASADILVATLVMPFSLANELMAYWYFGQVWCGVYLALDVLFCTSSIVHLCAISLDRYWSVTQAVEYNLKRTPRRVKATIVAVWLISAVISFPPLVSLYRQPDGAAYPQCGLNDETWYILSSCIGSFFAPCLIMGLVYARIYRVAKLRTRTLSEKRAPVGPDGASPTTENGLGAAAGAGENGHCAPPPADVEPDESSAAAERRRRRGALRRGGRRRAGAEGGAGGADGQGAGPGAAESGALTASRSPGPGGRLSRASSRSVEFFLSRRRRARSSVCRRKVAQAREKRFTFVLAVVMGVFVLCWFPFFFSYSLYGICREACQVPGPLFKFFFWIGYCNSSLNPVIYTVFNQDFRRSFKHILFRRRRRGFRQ
T1 sequence (P08913 whole entry): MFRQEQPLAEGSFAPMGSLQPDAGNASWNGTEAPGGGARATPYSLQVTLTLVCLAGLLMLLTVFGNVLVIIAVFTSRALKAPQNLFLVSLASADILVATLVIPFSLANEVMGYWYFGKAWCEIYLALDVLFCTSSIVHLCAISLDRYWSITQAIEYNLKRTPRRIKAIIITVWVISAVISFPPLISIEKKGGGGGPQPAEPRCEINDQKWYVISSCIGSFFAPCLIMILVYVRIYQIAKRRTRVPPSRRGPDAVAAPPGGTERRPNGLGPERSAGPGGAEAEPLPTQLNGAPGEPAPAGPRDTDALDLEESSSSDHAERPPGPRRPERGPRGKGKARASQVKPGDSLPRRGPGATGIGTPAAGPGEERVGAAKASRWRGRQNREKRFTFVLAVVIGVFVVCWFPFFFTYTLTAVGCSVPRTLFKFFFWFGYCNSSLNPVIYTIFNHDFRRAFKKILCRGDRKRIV
T3 sequence (P35367 whole entry): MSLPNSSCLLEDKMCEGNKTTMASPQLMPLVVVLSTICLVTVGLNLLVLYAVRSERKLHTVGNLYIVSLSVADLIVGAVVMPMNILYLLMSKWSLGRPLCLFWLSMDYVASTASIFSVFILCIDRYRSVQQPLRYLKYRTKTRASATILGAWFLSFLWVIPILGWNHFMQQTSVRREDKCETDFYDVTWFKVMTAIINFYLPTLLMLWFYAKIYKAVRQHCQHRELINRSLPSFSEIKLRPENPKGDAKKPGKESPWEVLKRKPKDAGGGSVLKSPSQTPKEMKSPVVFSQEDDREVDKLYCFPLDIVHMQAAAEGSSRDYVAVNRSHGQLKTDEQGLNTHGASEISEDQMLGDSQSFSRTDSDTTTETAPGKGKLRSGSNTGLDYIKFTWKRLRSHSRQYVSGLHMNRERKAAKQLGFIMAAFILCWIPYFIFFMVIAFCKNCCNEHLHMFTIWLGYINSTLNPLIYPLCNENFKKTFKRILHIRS

SMILES: CCC1(CC)CC(CCN2CCN(c3ccc(O)cc3)CC2)OC1=O (stereo not drawn) [MC-170073]
- Ki [1]: > 10 µM
- Ki (α2A): 3.48 µM
- Ki (α2C): 3.6 µM
- Ki (H1): 0.915 µM
- half-life [2]: 17 min
- colonic IL-1β level [3]: lower levels
- colonic MPO level [3]: lower levels
- histological score [3]: downregulation
- macroscopic score [3]: downregulation
